Data published in publication PMC8213057, “Targeting ALK2: An Open Science Approach to Developing Therapeutics for the Treatment of Diffuse Intrinsic Pontine Glioma” (Journal of Medicinal Chemistry, 2020).

Columns and labels:
CTK/MATK = molecular target: T1, CTK/MATK (Homo sapiens, UniProt P42679); conditions: 1 μM; Run 1, Run 2
T1 sequence (P42679 1-507): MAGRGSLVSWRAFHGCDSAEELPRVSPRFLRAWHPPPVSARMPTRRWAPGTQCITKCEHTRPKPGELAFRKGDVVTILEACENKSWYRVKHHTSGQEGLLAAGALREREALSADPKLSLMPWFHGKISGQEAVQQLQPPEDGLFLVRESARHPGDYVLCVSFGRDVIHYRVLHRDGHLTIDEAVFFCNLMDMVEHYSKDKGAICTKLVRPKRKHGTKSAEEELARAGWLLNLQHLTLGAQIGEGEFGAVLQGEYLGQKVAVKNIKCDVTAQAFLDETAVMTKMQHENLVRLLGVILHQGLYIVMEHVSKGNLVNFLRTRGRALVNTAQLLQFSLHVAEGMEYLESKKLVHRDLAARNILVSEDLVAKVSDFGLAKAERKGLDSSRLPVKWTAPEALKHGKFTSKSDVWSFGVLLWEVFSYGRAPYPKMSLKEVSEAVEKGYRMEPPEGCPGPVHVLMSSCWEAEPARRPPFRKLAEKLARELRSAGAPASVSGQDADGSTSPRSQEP

IKKe/IKBKE = molecular target: T2, IKKe/IKBKE (Homo sapiens, UniProt Q14164); conditions: 1 μM; Run 1, Run 2
T2 sequence (Q14164 1-716): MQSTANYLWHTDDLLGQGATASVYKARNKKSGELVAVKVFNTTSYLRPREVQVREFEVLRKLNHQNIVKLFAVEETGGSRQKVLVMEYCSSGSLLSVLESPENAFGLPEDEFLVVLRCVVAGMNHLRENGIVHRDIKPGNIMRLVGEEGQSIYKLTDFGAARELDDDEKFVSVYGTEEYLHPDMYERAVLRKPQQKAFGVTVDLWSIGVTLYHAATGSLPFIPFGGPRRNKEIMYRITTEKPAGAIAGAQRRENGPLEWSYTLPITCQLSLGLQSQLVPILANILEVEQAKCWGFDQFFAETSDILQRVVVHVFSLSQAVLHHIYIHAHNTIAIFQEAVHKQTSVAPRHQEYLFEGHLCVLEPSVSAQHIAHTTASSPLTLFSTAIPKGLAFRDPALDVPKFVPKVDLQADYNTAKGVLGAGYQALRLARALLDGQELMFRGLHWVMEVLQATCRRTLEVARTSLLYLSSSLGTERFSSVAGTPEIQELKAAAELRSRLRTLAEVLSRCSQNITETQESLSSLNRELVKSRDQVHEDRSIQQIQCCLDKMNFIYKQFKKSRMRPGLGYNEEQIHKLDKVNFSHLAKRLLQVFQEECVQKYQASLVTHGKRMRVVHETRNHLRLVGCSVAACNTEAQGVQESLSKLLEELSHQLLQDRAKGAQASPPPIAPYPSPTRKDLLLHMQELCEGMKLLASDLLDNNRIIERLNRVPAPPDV

ITK = molecular target: T3, ITK (Homo sapiens, UniProt Q08881); conditions: 1 μM; Run 1, Run 2
T3 sequence (Q08881 1-620): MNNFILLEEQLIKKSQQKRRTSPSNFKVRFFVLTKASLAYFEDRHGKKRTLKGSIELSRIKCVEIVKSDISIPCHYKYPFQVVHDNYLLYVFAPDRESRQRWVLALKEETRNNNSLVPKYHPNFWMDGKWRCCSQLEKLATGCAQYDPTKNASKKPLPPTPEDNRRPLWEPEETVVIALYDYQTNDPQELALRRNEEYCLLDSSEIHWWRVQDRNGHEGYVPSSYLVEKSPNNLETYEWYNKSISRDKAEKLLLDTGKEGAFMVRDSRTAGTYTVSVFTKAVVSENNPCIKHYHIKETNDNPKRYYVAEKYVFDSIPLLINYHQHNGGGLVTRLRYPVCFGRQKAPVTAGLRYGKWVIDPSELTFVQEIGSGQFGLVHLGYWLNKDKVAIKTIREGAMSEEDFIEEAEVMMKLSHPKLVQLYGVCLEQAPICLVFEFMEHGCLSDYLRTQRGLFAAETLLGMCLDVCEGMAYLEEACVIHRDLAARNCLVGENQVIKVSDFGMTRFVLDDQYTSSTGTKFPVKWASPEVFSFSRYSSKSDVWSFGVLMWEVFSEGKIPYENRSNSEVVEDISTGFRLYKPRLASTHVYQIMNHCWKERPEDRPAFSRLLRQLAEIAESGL

JNK2 = JNK2 (Homo sapiens, UniProt P45984); conditions: 1 μM; Run 1, Run 2
KSR2 = molecular target: T4, KSR2 (Homo sapiens, UniProt Q6VAB6); conditions: 1 μM; Run 1, Run 2
T4 sequence (Q6VAB6 1-950): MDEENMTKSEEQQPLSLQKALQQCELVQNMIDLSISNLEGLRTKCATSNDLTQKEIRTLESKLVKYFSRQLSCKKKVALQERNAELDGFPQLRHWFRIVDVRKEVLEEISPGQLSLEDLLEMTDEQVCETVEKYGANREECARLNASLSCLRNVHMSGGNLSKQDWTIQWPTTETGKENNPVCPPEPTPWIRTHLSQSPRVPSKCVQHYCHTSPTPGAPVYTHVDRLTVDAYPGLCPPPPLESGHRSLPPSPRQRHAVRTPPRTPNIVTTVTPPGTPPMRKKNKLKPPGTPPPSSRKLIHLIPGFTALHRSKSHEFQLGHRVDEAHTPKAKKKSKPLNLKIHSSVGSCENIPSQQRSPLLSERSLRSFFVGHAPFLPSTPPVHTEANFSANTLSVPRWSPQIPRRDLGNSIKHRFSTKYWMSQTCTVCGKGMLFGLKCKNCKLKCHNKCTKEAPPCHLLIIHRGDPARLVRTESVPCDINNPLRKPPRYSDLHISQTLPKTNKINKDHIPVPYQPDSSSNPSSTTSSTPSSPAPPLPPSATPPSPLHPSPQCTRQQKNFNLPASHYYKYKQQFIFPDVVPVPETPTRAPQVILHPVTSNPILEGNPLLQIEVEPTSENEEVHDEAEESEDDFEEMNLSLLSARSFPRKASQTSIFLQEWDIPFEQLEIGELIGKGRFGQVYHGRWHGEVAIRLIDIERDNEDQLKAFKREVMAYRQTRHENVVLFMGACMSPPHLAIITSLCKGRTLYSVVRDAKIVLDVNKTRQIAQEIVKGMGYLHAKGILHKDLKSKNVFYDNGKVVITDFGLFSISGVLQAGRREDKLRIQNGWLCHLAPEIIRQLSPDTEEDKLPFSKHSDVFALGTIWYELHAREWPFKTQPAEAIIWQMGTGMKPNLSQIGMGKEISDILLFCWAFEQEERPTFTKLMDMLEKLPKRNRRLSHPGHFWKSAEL

MNK1 = MNK1 (Homo sapiens, UniProt Q9BUB5); conditions: 1 μM; Run 1, Run 2
LYN B = LYN B (Homo sapiens, UniProt P07948); experiment: biochemical; conditions: read-out: % enzyme activity, 1 μM; Run 1, Run 2
Sequence of LYN B (P07948 1-491 isoform P07948-2): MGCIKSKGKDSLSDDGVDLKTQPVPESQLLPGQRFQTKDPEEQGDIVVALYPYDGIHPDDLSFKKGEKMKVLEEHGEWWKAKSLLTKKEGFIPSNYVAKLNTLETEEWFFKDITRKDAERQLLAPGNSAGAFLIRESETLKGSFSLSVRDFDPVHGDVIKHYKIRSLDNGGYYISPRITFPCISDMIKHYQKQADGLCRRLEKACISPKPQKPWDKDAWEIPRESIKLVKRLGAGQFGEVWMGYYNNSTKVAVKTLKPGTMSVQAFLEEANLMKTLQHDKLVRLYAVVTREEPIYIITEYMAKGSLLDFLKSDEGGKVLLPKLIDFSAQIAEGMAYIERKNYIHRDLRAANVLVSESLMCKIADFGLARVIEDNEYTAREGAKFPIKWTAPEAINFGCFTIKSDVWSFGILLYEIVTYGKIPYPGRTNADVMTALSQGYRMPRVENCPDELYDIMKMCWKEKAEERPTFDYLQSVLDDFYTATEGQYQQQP

Sequence of MNK1 (Q9BUB5 whole entry): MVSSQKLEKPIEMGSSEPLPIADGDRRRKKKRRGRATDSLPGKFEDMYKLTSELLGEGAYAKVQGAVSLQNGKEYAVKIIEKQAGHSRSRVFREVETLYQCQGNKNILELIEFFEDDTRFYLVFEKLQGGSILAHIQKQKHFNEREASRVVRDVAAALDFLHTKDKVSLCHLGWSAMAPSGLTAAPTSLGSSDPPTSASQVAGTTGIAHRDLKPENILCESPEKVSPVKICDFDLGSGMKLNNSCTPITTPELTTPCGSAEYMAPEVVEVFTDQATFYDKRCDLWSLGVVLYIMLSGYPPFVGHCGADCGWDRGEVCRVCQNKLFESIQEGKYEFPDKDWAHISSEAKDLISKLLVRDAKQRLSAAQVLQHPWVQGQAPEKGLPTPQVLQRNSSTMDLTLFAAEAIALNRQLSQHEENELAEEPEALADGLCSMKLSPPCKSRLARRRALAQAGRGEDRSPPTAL
Sequence of JNK2 (P45984 whole entry): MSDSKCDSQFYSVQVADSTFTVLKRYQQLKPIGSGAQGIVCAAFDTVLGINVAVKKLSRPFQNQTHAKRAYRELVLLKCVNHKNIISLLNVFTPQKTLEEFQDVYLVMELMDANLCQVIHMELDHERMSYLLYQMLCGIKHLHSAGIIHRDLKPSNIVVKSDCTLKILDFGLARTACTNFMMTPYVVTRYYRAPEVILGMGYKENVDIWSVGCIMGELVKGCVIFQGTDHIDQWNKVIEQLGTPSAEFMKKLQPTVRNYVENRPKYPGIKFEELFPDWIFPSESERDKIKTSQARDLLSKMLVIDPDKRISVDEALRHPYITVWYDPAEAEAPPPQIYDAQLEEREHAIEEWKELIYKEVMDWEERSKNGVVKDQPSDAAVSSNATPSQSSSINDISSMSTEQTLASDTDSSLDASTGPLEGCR

COc1cc(-c2cncc(-c3ccc(N4C[C@@H](C)N(C)[C@@H](C)C4)cc3)c2C)cc(F)c1C(N)=O [Compound 26c, 2-Fluoro-6-methoxy-4-(4-methyl-5-(4-((3R,5S)-3,4,5-trimethylpiperazin-1-yl)phenyl)pyridin-3-yl)benzamide]
% enzyme activity (CTK/MATK): 98.62% | % enzyme activity (IKKe/IKBKE): 94.75% | % enzyme activity (ITK): 100.51% | % enzyme activity (JNK2): 94.14% | % enzyme activity (KSR2): 97.71% | % enzyme activity (MNK1): 70.81% | remaining activity at 1 µM (LYN B): 98.2%

COc1cc(-c2cncc(-c3ccc(N4CCN(C)CC4)cc3)c2C)cc(F)c1C(N)=O [Compound 26a, 2-Fluoro-6-methoxy-4-(4-methyl-5-(4-(4-methylpiperazin-1-yl)phenyl)pyridin-3-yl)benzamide]
% enzyme activity (CTK/MATK): 94.85% | % enzyme activity (IKKe/IKBKE): 87.51% | % enzyme activity (ITK): 103.48% | % enzyme activity (JNK2): 91.99% | % enzyme activity (KSR2): 93.25% | % enzyme activity (MNK1): 50.34% | remaining activity at 1 µM (LYN B): 99.2%
